According to USRE37495E1, “Substituted 1-arylpyrazoles” (Bayer Aktiengesellschaft, priority 1993, dated 2002):

Assays:
Assay type in all cases: in vivo
[1] = test system: Blattella germanica or Periplaneta americana; experiment: Cockroach test; conditions: after 6 hours, filter paper
Experimental: Test animals: Blattella germanica or Periplaneta americana
(§1) 35 parts by weight of ethylene glycol monomethyl ether
(§2) 35 parts by weight of nonylphenol polyglycol ether
(§3) To produce a suitable formulation, three parts by weight of active compound are mixed with seven parts of the abovementioned solvent/emulsifier mixture, and the emulsion concentrate thus obtained is diluted with water to the particular desired concentration.
2 ml of this preparation of active compound are pipetted onto filter paper discs (φ9.5 cm) located in Petri dishes of a suitable size. After the filter paper discs have dried, 5 test animals (Blattella germanica or Periplaneta americana) are introduced into the Petri dish, which is covered.
After 6 hours, the effectiveness of the preparation of active compound is determined. The effectiveness is expressed in %. 100% means that all cockroaches have been killed; 0% means that none of the cockroaches have been killed.

[2] = test system: Phaedon cochleariae larvae; experiment: Critical concentration test/root-systemic action, Phaedon; conditions: 2.5 ppm active compound in soil, leaves infested after 7 days, evaluated after a further 2 days
Experimental: Critical Concentration Test/Root-Systemic Action.
Test insect: Phaedon cochleariae larvae
(§4) Solvent: 3 parts by weight of acetone
(§5) Emulsifier: 1 part by weight of alkylaryl polyglycol ether
(§6) To produce a suitable preparation of active compound, 1 part by weight of active compound is mixed with the stated amount of solvent, the stated amount of emulsifier is added and the concentrate is diluted with water to the desired concentration.
(§7) The preparation of active compound is intimately mixed with soil. The concentration of the active compound in the preparation is of practically no importance, only the amount by weight of active compound per unit volume of soil, which is given in ppm (=mg/l), being decisive. The treated soil is transferred into pots and these are planted with cabbage (Brassica oleracea). The active compound can in this way be taken up from the soil by the roots of the plants and be transferred into the leaves.
(§8) After a further 2 days, the evaluation is made by counting or estimating the dead animals. The root-systemic action of the active compound is deduced from the mortality figures. It is 100% if all test animals have been killed and 0% if just as many test insects are still alive as in the case of the untreated control.

Lucilia cuprina larvae = experiment: Blowfly larvae test; conditions: after 24 hours
Experimental: Test animals: Lucilia cuprina larvae
35 parts by weight of ethylene glcyol monomethyl ether
as §2
To produce a suitable preparation of active compound, three parts by weight of active compound are mixed with seven parts by weight of the abovementioned mixture and the emulsion concentrate thus obtained is diluted with water to the particular desired concentration.
About 20 Lucilia cuprina res. larvae are introduced into a test tube which contains approx. 1 cm^3 of horse meat and 0.5 ml of the preparation of active compound. After 24 hours, the effectiveness of the preparation of active compound is determined. 100% means that all blowfly larvae have been killed; 0% means that none of the blowfly larvae have been killed.

Myzus persicae = experiment: Critical concentration test/root-systemic action, Myzus; conditions: 20 ppm active compound in soil, leaves infested after 7 days, evaluated after a further 2 days
Experimental: Critical Concentration Test/Root-Systemic Action
Test insect: Myzus persicae
as §4, §5, §6, §7, §8

[3] = test system: peach aphid (Myzus persicae); experiment: Myzus test (leaf dip); conditions: concentration of active compound 0.1%, after one day, cabbage leaves dipped
Experimental: (§9) Solvent: 7 parts by weight of dimethylformamide
as §5
(§10) To produce a suitable preparation of active compound, 1 part by weight of active compound is mixed with the stated amount of solvent and the stated amount of emulsifier, and the concentrate is diluted with water to the desired concentration.
Cabbage leaves (Brassica oleracea) which are heavily infested with the peach aphid (Myzus persicae) are treated by being dipped into the preparation of active compound of the desired concentration.
(§11) After the specified period of time, the destruction in % is determined. 100% means that all the aphids have been killed; 0% means that none of the aphids have been killed.

[4] = test system: All stages (eggs, larvae, pupae and adults) of Ctenocephalides felis; experiment: Flea in-vitro test (all development stages); conditions: active compound concentration 10% in blood meal
Experimental: Flea In-Vitro Test (All Development Stages)
Test subject: All stages (eggs, larvae, pupae and adults) of Ctenocephalides felis.
Blood meal is dried overnight in a shallow dish at approximately 70° C. and then screened using a mesh size of 0.63 mm.
1.8 g portions of this prepared blood meal are transferred into plastic Petri dishes of φ9.8 cm.
Using an Eppendorf pipette, 0.2 ml of substance are placed on the 1.8 g of blood meal (dilution factor 1:10).
That is to say, at a use concentration of 1 ppm, the aqueous solution must have a concentration of 10 ppm. The solution is distributed dropwise over the entire surface of-the blood meal.
These prepared dishes are allowed to dry overnight. Using a suitable device, the substance, which is now in the form of dried lumps of blood meal, is crushed and distributed uniformly in the Petri dish by rotating movements. A spatula-full of sieved flea eggs (which are obtained from artificially infected cats) is now added to these prepared test dishes. The dish is sealed with Parafilm and shaken vigorously.
Incubation is effected at 25° C. and the relative atmospheric humidity of 85%. At certain intervals, the dishes are examined for development stages of fleas.
Test criteria: The criteria used for the in-vitro activity of a substance is the inhibition of flea development or a standstill of the development before the adult stage is reached. […]

[5] = test system: Musca domestica, strain WHO (N); experiment: Fly test; conditions: concentration of active compound 1 ppm, after 6 hours, filter paper
Experimental: Test animals: Musca domestica, strain WHO (N)
as §1, §2, §3
2 ml of this preparation of active compound are pipetted onto filter paper discs (φ9.5 cm) located in Petri dishes of a suitable size. After the filter paper discs have dried, 25 test animals are introduced into the Petri dish, which is covered.
After 6 hours, the effectiveness of the preparation of active compound is determined. The effectiveness is expressed in %. 100% means that all flies have been killed; 0% means that none of the flies have been killed.

[6] = test system: black bean aphid (Aphis fabae); experiment: Aphis test (systemic action); conditions: concentration of active compound 0.02%, after four days, bean plants watered (systemic)
Experimental: Aphis Test (Systemic Action)
as §9, §5, §10
Bean plants (Vicia faba) which are heavily infested with the black bean aphid (Aphis fabae) are each watered with 20 ml of preparation of active compound of the desired concentration in such a way that the preparation of active compound penetrates into the soil without wetting the shoot. The active compound is taken up by the roots and passes to the shoot.
as §11

Row | SMILES | destruction ([1]; concentration of active compound >10 ppm) [%] | degree of destruction [2] [%] | destructive activity (Lucilia cuprina larvae; concentration of active compound ≧300 ppm) [%] | degree of destruction ([1]; concentration of active compound 10 ppm) [%] | degree of destruction (Myzus persicae) [%] | destructive activity (Lucilia cuprina larvae; concentration of active compound 1000 ppm) [%] | degree of destruction [3] [%] | destruction [4] [%] | destruction [5] [%] | degree of destruction [6] [%]
1 | Cc1nn(-c2c(Cl)cc(C(F)(F)F)cc2Cl)c(N)c1SC(C)(F)F [Example 1, 5-amino-3-methyl-4-(1,1-difluoroethylthio)-1-(2,6-dichloro-4-trifluoromethylphenyl)-pyrazole] | 100 | 100 | – | – | – | – | – | – | – | –
2 | CC(F)(F)Sc1cnn(-c2c(Cl)cc(C(F)(F)F)cc2NN)c1N [Example 33, 5-amino-4-(1,1-difluoroethylthio)-1-(2-chloro-4-trifluoromethyl-6-hydrazinophenyl)-pyrazole] | – | 100 | 100 | – | – | – | – | – | – | –
3 | N#Cc1nn(-c2c(Cl)cc(C(F)(F)F)cc2Cl)c(N)c1[S+]([O-])C(F)(F)F (stereo not drawn) [prior art] | – | 0 | – | < 100 | 0 | 100 | 0 | 0 | < 100 | 0
